Like-named read-outs stand apart in the source and are kept apart here.
Target: T1, human TLR8 (Homo sapiens, UniProt Q9NR97)
T1 sequence (Q9NR97 27-1041): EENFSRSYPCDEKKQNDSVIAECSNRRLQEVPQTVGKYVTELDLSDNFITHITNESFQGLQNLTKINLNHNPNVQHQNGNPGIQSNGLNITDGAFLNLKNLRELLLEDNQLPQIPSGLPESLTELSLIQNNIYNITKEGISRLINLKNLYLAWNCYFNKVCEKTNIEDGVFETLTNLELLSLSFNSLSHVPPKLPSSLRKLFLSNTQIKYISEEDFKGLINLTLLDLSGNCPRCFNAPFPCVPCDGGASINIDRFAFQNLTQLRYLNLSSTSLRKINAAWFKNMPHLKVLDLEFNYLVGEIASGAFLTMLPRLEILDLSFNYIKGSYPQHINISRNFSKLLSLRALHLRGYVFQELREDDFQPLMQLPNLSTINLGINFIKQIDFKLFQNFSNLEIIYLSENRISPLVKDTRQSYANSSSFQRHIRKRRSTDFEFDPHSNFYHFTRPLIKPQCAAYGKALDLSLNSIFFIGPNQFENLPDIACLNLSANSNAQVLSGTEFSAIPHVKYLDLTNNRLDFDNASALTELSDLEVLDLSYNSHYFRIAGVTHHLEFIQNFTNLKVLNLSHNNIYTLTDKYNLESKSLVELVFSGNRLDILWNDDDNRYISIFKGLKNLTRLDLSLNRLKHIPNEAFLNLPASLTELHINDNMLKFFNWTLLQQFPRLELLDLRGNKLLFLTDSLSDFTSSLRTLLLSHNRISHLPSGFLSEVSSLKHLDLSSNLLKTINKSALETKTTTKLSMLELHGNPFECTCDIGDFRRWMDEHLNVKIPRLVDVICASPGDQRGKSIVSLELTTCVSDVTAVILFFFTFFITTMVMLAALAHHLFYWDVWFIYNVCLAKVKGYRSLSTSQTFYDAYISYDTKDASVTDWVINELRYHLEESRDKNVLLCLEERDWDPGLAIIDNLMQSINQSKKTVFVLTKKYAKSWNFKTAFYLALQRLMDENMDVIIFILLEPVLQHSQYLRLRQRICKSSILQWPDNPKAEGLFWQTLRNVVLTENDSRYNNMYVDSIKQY
Assay: HEK293-Blue-hTLR-8 cells assay (SEAP reporter, R848 stimulation)
Type: cell-based
Method: The following tests were carried out in order to determine the activity of the compounds of formula (I) in HEK293-Blue-hTLR-7/8/9 cells assay.
HEK293-Blue-hTLR-8 Cells Assay:
A stable HEK293-Blue-hTLR-8 cell line was purchased from InvivoGen (Cat. #: hkb-htlr8, San Diego, California, USA). These cells were originally designed for studying the stimulation of human TLR8 by monitoring the activation of NF-κB. A SEAP (secreted embryonic alkaline phosphatase) reporter gene was placed under the control of the IFN-β minimal promoter fused to five NF-κB and AP-1-binding sites. The SEAP was induced by activating NF-κB and AP-1 via stimulating HEK-Blue hTLR8 cells with TLR8 ligands. Therefore the reporter expression was declined by TLR8 antagonist under the stimulation of a ligand, such as R848, for incubation of 20 hrs. The cell culture supernatant SEAP reporter activity was determined using QUANTI-Blue™ kit (Cat. #: rep-qb1, Invivogen, San Diego, Ca, USA) at a wavelength of 640 nm, a detection medium that turns purple or blue in the presence of alkaline phosphatase.
HEK293-Blue-hTLR8 cells were incubated at a density of 250,000˜450,000 cells/mL in a volume of 170 μL in a 96-well plate in Dulbecco's Modified Eagle's medium (DMEM) containing 4.5 g/L glucose, 50 U/mL penicillin, […], […], 2 mM L-glutamine, 10% (v/v) heat-inactivated fetal bovine serum with addition of 20 μL test compound in a serial dilution in the presence of final DMSO at 1% and 10 μL of 60 uM R848 in above DMEM, perform incubation under 37° C. in a CO2 incubator for 20 hrs. Then 20 μL of the supernatant from each well was incubated with 180 μL Quanti-blue substrate solution at 37° C. for 2 hrs and the absorbance was read at 620˜655 nm using a spectrophotometer. The signalling pathway that TLR8 activation leads to downstream NF-κB activation has been widely accepted, and therefore similar reporter assay was modified for evaluating TLR8 antagonist.

[1] = HEK293-Blue-hTLR-8 cells, R848 ligand, 20 hrs incubation, read-out: TLR8 IC50

IC50 [1] [nM]	Compound	IC50 [nM]
97	C[C@@H]1CN(c2ccc(C#N)n3nccc23)C[C@H](C(=O)N2CCC3(CCNCC3)CC2)O1 [Example 28, 4-[(2R,6R)-2-(3,9-diazaspiro[5.5]undecane-3-carbonyl)-6-methyl-morpholin-4-yl]pyrazolo[1,5a]pyridine-7-carbonitrile]	–
93	C[C@@H]1CN(c2ccc(C#N)n3nccc23)C[C@H](C(=O)NC2C3CCC2CNC3)O1 (stereo partly drawn) [Example 26, (2R,6R)-N-(3-azabicyclo[3.2.1]octan-8-yl)-4-(7-cyanopyrazolo[1,5-a]pyridin-4-yl)-6-methyl-morpholine-2-carboxamide]	–
25	C[C@@H]1CN(c2ccc(C#N)n3nccc23)C[C@H](C(=O)NC2CC3COCC(C2)N3)O1 (stereo partly drawn) [Example 22, Endo-(2R,6R)-4-(7-cyanopyrazolo[1,5-a]pyridin-4-yl)-6-methyl-N-[3-oxa-9-azabicyclo[3.3.1]nonan-7-yl]morpholine-2-carboxamide]	–
140	C[C@@H]1CN(c2ccc(C#N)n3nccc23)C[C@H](C(=O)NC(C)(C)CN)O1 [Example 41, (2R,6R)-N-(2-amino-1,1-dimethyl-ethyl)-4-(7-cyanopyrazolo[1,5-a]pyridin-4-yl)-6-methyl-morpholine-2-carboxamide]	–
72	C[C@@H]1CN(c2ccc(C#N)n3nccc23)C[C@H](C(=O)NC2C3CNC[C@@H]32)O1 (stereo partly drawn) [Example 31, Trans-(2R,6R)-N-(3-azabicyclo[3.1.0]hexan-6-yl)-4-(7-cyanopyrazolo[1,5-a]pyridin-4-yl)-6-methyl-morpholine-2-carboxamide]	–
5	C[C@@H]1CN(c2ccc(C#N)n3ncc(F)c23)C[C@H](C(=O)NC2CCN(C)CC2)O1 [Example 47, (2R,6R)-4-(7-cyano-3-fluoro-pyrazolo[1,5-a]pyridin-4-yl)-6-methyl-N-(1-methyl-4-piperidyl)morpholine-2-carboxamide]	–
370	C[C@@H]1CN(c2ccc(C#N)n3nccc23)C[C@H](C(=O)NC2C3CNCC2COC3)O1 (stereo partly drawn) [Example 27, (2R,6R)-4-(7-cyanopyrazolo[1,5-a]pyridin-4-yl)-6-methyl-N-(3-oxa-7-azabicyclo[3.3.1]nonan-9-yl)morpholine-2-carboxamide]	–
610	C[C@@H]1CN(c2ccc(C#N)n3nccc23)C[C@H](C(=O)NC2CCNC2)O1 (stereo partly drawn) [Example 25, (2R,6R)-4-(7-cyanopyrazolo[1,5-a]pyridin-4-yl)-6-methyl-N-pyrrolidin-3-yl-morpholine-2-carboxamide]	–
33	C[C@@H]1CN(c2ccc(C#N)n3nccc23)C[C@H](C(=O)NCC(C)(C)CN)O1 [Example 39, (2R,6R)-N-(3-amino-2,2-dimethyl-propyl)-4-(7-cyanopyrazolo[1,5-a]pyridin-4-yl)-6-methyl-morpholine-2-carboxamide]	–
74	C[C@@H]1CN(c2ccc(C#N)n3nccc23)C[C@H](C(=O)NC2CC3CCC(C2)N3)O1 (stereo partly drawn) [Example 23, Exo-(2R,6R)-N-[8-azabicyclo[3.2.1]octan-3-yl]-4-(7-cyanopyrazolo[1,5-a]pyridin-4-yl)-6-methyl-morpholine-2-carboxamide]	–

The next lines start with the compound.

Compound	IC50 [1] [nM]	IC50 [nM]
C[C@@H]1CN(c2ccc(C#N)n3nccc23)C[C@H](C(=O)NC2CC3(CNC3)C2)O1 [Example 3, (2R,6R)-N-(2-azaspiro[3.3]heptan-6-yl)-4-(7-cyanopyrazolo[1,5-a]pyridin-4-yl)-6-methyl-morpholine-2-carboxamide]	95	–
C[C@@H]1CN(c2ccc(C#N)n3nccc23)C[C@H](C(=O)N[C@H]2CC[C@@H](O)CC2)O1 [Example 20, Cis-(2R,6R)-4-(7-cyanopyrazolo[1,5-a]pyridin-4-yl)-N-(4-hydroxycyclohexyl)-6-methyl-morpholine-2-carboxamide]	190	–
COCCNC(=O)[C@H]1CN(c2ccc(C#N)n3nccc23)C[C@@H](C)O1 [Example 9, (2R,6R)-4-(7-cyanopyrazolo[1,5-a]pyridin-4-yl)-N-(2-methoxyethyl)-6-methyl-morpholine-2-carboxamide]	860	–
C[C@@H]1CN(c2ccc(C#N)n3nccc23)C[C@H](C(=O)NC(C)(C)CO)O1 [Example 16, (2R,6R)-4-(7-cyanopyrazolo[1,5-a]pyridin-4-yl)-N-(2-hydroxy-1,1-dimethyl-ethyl)-6-methyl-morpholine-2-carboxamide]	210	–
C[C@@H]1CN(c2ccc(C#N)n3nccc23)C[C@H](C(=O)NC2CC3CCCC(C2)N3)O1 (stereo partly drawn) [Example 14, (2R,6R)-N-(9-azabicyclo[3.3.1]nonan-3-yl)-4-(7-cyanopyrazolo[1,5-a]pyridin-4-yl)-6-methyl-morpholine-2-carboxamide]	30	–
C[C@@H]1CN(c2ccc(C#N)n3nccc23)C[C@H](C(=O)NC2CC3CCCC(C2)N3C)O1 (stereo partly drawn) [Example 35, (2R,6R)-4-(7-cyanopyrazolo[1,5-a]pyridin-4-yl)-6-methyl-N-(9-methyl-9-azabicyclo[3.3.1]nonan-3-yl)morpholine-2-carboxamide]	–	38
C[C@@H]1CN(c2ccc(C#N)n3nccc23)C[C@H](C(=O)NC23CC4CC(CC(C4)C2)C3)O1 [Example 12, (2R,6R)-N-(1-adamantyl)-4-(7-cyanopyrazolo[1,5-a]pyridin-4-yl)-6-methyl-morpholine-2-carboxamide]	320	–
CCC(C)(C)NC(=O)[C@H]1CN(c2ccc(C#N)n3nccc23)C[C@@H](C)O1 [Example 17, (2R,6R)-4-(7-cyanopyrazolo[1,5-a]pyridin-4-yl)-N-(1,1-dimethylpropyl)-6-methyl-morpholine-2-carboxamide]	100	–
C[C@@H]1CN(c2ccc(C#N)n3nccc23)C[C@H](C(=O)NC2CNC[C@H]2F)O1 (stereo partly drawn) [Example 5, Cis-(2R,6R)-4-(7-cyanopyrazolo[1,5-a]pyridin-4-yl)-6-methyl-N-(4-fluoropyrrolidin-3-yl) morpholine-2-carboxamide]	47	–
C[C@@H]1CN(c2ccc(C#N)n3nccc23)C[C@H](C(=O)NC2CCN(C)CC2)O1 [Example 1, (2R,6R)-4-(7-cyanopyrazolo[1,5-a]pyridin-4-yl)-6-methyl-N-(1-methyl-4-piperidyl)morpholine-2-carboxamide]	7	–
C[C@@H]1CN(c2ccc(C#N)n3nccc23)C[C@H](C(=O)N[C@H]2CNC[C@H]2F)O1 [Example 2, (2R,6R)-4-(7-cyanopyrazolo[1,5-a]pyridin-4-yl)-N-[(3S,4R)-4-fluoropyrrolidin-3-yl]-6-methyl-morpholine-2-carboxamide]	160	–
C[C@@H]1CN(c2ccc(C#N)n3nccc23)C[C@H](C(=O)N[C@H]2CC[C@H](O)CC2)O1 [Example 21, Trans-(2R,6R)-4-(7-cyanopyrazolo[1,5-a]pyridin-4-yl)-N-(4-hydroxycyclohexyl)-6-methyl-morpholine-2-carboxamide]	570	–
C[C@@H]1CN(c2ccc(C#N)n3nccc23)C[C@H](C(=O)NC2(C)CCNCC2)O1 [Example 19, (2R,6R)-4-(7-cyanopyrazolo[1,5-a]pyridin-4-yl)-6-methyl-N-(4-methyl-4-piperidyl)morpholine-2-carboxamide]	27	–
C[C@@H]1CN(c2ccc(C#N)n3nccc23)C[C@H](C(=O)NCC2CNCC2(F)F)O1 (stereo partly drawn) [Example 18, (2R,6R)-4-(7-cyanopyrazolo[1,5-a]pyridin-4-yl)-N-[(4,4-difluoropyrrolidin-3-yl)methyl]-6-methyl-morpholine-2-carboxamide]	100	–
